Experimental data: the NIST ThermoML archive (doi:10.1021/je060157s)
Values joined by “and” are separate entries in the source; they are usually repeats but may differ in a detail not shown here. Identical values can stand only once. Numbers after ± are expanded uncertainties.

Conditions: Liquid

SMILES | vapor or sublimation pressure (293.15 K) | vapor or sublimation pressure (293.33 K) | vapor or sublimation pressure (293.34 K) | vapor or sublimation pressure (303.15 K) | vapor or sublimation pressure (303.35 K) | vapor or sublimation pressure (313.15 K) | vapor or sublimation pressure (313.37 K) | vapor or sublimation pressure (323.15 K) | vapor or sublimation pressure (323.39 K) | vapor or sublimation pressure (333.15 K) | vapor or sublimation pressure (333.39 K) | vapor or sublimation pressure (343.15 K) | vapor or sublimation pressure (343.42 K) | vapor or sublimation pressure (353.15 K) | vapor or sublimation pressure (353.43 K) | vapor or sublimation pressure (363.15 K) | vapor or sublimation pressure (363.43 K)
CC(O)c1ccccc1 (stereo not given) [1-phenylethanol] | 0.006 ± 0.006 kPa | 0.009952 ± 0.0035 kPa | 0.009956 ± 0.0035 kPa | 0.016 ± 0.007 kPa | 0.02451 ± 0.0047 kPa and 0.0219 ± 0.0046 kPa | 0.041 ± 0.009 kPa | 0.06281 ± 0.0061 kPa and 0.06414 ± 0.0062 kPa | 0.095 ± 0.014 kPa | 0.1472 ± 0.013 kPa and 0.136 ± 0.013 kPa and 0.1419 ± 0.013 kPa | 0.203 ± 0.021 kPa | 0.2635 ± 0.016 kPa and 0.2649 ± 0.016 kPa | 0.404 ± 0.033 kPa | 0.515 ± 0.022 kPa and 0.5189 ± 0.022 kPa | 0.759 ± 0.055 kPa | 0.902 ± 0.032 kPa and 0.9053 ± 0.032 kPa | 1.352 ± 0.079 kPa | 1.556 ± 0.041 kPa
O [water] | 2.333 ± 0.091 kPa |  |  | 4.24 ± 0.12 kPa |  | 7.376 ± 0.15 kPa |  | 12.34 ± 0.22 kPa |  | 19.92 ± 0.31 kPa |  | 31.17 ± 0.45 kPa |  | 47.38 ± 0.66 kPa |  | 70.18 ± 0.94 kPa | 
